The source of these data is PMC8205030, “Methoxy and bromo scans on N-(5-methoxyphenyl) methoxybenzenesulphonamides reveal potent cytotoxic compounds, especially against the human breast adenocarcinoma MCF7 cell line” (Journal of Enzyme Inhibition and Medicinal Chemistry, 2021).

In brackets after ≈: the same amount, converted by molar mass. Where two headings read alike, the source gives them in different places.

The target of data set [1] is T1, microtubular protein isolated from calf brain (Bos taurus, UniProt P81947+Q6B856).
T1 construct: isolated from calf brain according to the modified Shelanski method; from tissue; host or cells: calf brain
Briefly: Inhibition of tubulin polymerisation (turbidity). The class given is biochemical. To be noted: for TPI % 10 µM: 10 µM compound, 1.5 mg/mL microtubular protein; for IC50: in vitro tubulin polymerisation inhibition, read-out: TPI IC50. The procedure:
Microtubular protein was isolated from calf brain according to the modified Shelanski method[23]^,[24] by two cycles of temperature-dependent assembly/disassembly and stored at −80 °C. Before each use, protein concentration is determined by Bradford method[25] taking BSA as standard. Tubulin polymerisation was monitored using a Helios α spectrophotometer by measuring the increase in turbidity at 450 nm, caused by a shift from 4 °C to 37 °C, which allows the in vitro microtubular protein to depolymerise and to polymerise, respectively. The assay was carried out in quartz cuvettes containing 1.5 mg/mL microtubular protein and the ligand (except for control cuvette with only DMSO at the same concentration) in a mixture of 0.1 M MES buffer, 1 mM EGTA, 1 mM MgCl2, 1 mM β-ME, and 1.5 mM GTP at pH 6.7 (final volume 500 µL). Cuvettes were preincubated at 20 °C for 30 min, to allow ligand binding to tubulin, and subsequently cooled on ice for 10 min. Then, the experiment starts at 4 °C to establish the initial baseline. The assembly process was initiated by a temperature shift to 37 °C and the turbidity produced by tubulin polymerisation can be measured by an absorbance increase. After reaching a stable plateau, the temperature was switched back to 4 °C to return to the initial absorption values (to confirm the reversible nature of the monitored process and to determine whether or not the microtubular protein has stabilized). The difference in amplitude between the stable plateau and the initial baseline of the curves was taken as the degree of tubulin polymerisation for each experiment. […] All compounds were tested at 10 µM concentration. IC50 values were calculated for compounds that inhibit tubulin polymerisation more than 50% at 10 µM. […] All the measurements were carried out in at least two independent experiments using microtubular protein from different preparations.

For data set [2], the system named is HT-29 (human colon carcinoma) cells. Briefly: Cell growth assay (XTT), HT-29, alone or with verapamil. The class given is cell-based. Here is the method:
The presence of mycoplasma was routinely checked with MycoAlert kit (Lonza-Cambrex) and only mycoplasma-free cells were used in the experiments. Tumour cell lines were kindly provided by Dr Faustino Mollinedo from Centro de Investigaciones Biológicas Margarita Salas, Madrid, Spain. To determine cell growth, cells in exponential growth phase were seeded (100 µL/well in 96-well plates) with appropriate cell concentration (1.5 × 10^4 cells/mL for MCF7, HeLa and HEK-293 and 3 × 10^4 cells/mL for HT-29) in complete DMEM or RPMI 1640 medium (see above) at 37 °C and 5% CO2 atmosphere. After 24 h incubation, to allow cells to attach to the plates, all compounds were added at 1 µM concentration (10 µL/well in 96-well plates) and the effect on the proliferation was evaluated 72 h post-treatment. […] Nonlinear curves fitting the experimental data were carried out for each compound. […] A freshly prepared mixture solution of XTT labelling reagent with 0.02% (v/v) PMS (N-methyl-dibenzopyrazine methyl sulfate) electron coupling reagent was added to cells (50 µL/well in 96-well plates, the total volume of 160 µL/well) and were incubated during the corresponding time according to each cell line (4 h for MCF7 and HeLa and 6 h for HT-29 and HEK-293) in a humidified atmosphere (37 °C, 5% CO2). The absorbance of the formazan product generated was measured at a test wavelength of 450 nm using a multi-well plate reader (Ultra Evolution, Tecan, Männedorf, Suiza). Compounds were dissolved in DMSO and the final solvent concentrations never exceeded 0.5% (v/v). The control wells included treated cells with 0.5% (v/v) DMSO and the positive control. 10 µM verapamil was included as a control for the HT-29 cell line. Measurements were performed in triplicate, and each experiment was repeated three times.

Data set [3] can be described thus: Aqueous solubility (saturation shake-flask, UV). Format: physicochemical. To be noted: aqueous buffer, thermodynamic from solid, pH 7.0 phosphate buffer, room temperature. Here is the method:
The aqueous solubility was determined in a Helios-α UV-320 Spectrophotometer Thermo-Spectronic, Thermo Fischer Scientific, Waltham, MA, USA) using an approach based on the saturation shake-flask method. 1–2 mg of each selected compound was suspended in 300 µL pH 7.0 buffer and stirred for 48 h at room temperature. The resulting mixture was filtered through a […] filter to discard the insoluble residues. A scan between 270 and 400 nm for the tested compound was performed and three wavelengths of maximum absorbance were selected. Calibration curves were performed at these wavelengths and the concentration in the supernatant was measured by UV absorbance. The final value was given as the average of the three measurements.

The subject of data set [4] is HeLa (human cervical carcinoma) cells. Briefly: Cell growth assay (XTT), HeLa. As to conditions: 72 h drug exposure, read-out: Antiproliferative activity IC50 HeLa. Format: cell-based. The procedure:
(§1) The presence of mycoplasma was routinely checked with MycoAlert kit (Lonza-Cambrex) and only mycoplasma-free cells were used in the experiments. Tumour cell lines were kindly provided by Dr Faustino Mollinedo from Centro de Investigaciones Biológicas Margarita Salas, Madrid, Spain. To determine cell growth, cells in exponential growth phase were seeded (100 µL/well in 96-well plates) with appropriate cell concentration (1.5 × 10^4 cells/mL for MCF7, HeLa and HEK-293 and 3 × 10^4 cells/mL for HT-29) in complete DMEM or RPMI 1640 medium (see above) at 37 °C and 5% CO2 atmosphere. After 24 h incubation, to allow cells to attach to the plates, all compounds were added at 1 µM concentration (10 µL/well in 96-well plates) and the effect on the proliferation was evaluated 72 h post-treatment. Compounds showing antiproliferative effects at tested concentration were selected for IC50 calculation (50% inhibitory concentration compared to the untreated controls) from 10^−5 to 10^−10 M concentration. Nonlinear curves fitting the experimental data were carried out for each compound. […] A freshly prepared mixture solution of XTT labelling reagent with 0.02% (v/v) PMS (N-methyl-dibenzopyrazine methyl sulfate) electron coupling reagent was added to cells (50 µL/well in 96-well plates, the total volume of 160 µL/well) and were incubated during the corresponding time according to each cell line (4 h for MCF7 and HeLa and 6 h for HT-29 and HEK-293) in a humidified atmosphere (37 °C, 5% CO2). The absorbance of the formazan product generated was measured at a test wavelength of 450 nm using a multi-well plate reader (Ultra Evolution, Tecan, Männedorf, Suiza). Compounds were dissolved in DMSO and the final solvent concentrations never exceeded 0.5% (v/v). The control wells included treated cells with 0.5% (v/v) DMSO and the positive control. 10 µM verapamil was included as a control for the HT-29 cell line. Measurements were performed in triplicate, and each experiment was repeated three times.

In data set [5] the test system is MCF7 (human breast carcinoma) cells. Briefly: Cell growth assay (XTT), MCF7. Format: cell-based. As to conditions: for IC50: Homo sapiens, MCF7, 72 h drug exposure, XTT, read-out: Antiproliferative activity IC50 MCF7; for Fold more potent against MCF7 than against HeLa: ratio of IC50 values. The procedure:
as §1

Setting [6] is: Homo sapiens, HT-29, 72 h drug exposure, XTT, read-out: Antiproliferative activity IC50 HT-29.
Where [7] appears, read: 72 h, in the presence of Pgp/MDR1 inhibitor verapamil (10 µM), read-out: Antiproliferative activity IC50 HT-29 Verap.

T1 sequence (Q6B856 whole entry): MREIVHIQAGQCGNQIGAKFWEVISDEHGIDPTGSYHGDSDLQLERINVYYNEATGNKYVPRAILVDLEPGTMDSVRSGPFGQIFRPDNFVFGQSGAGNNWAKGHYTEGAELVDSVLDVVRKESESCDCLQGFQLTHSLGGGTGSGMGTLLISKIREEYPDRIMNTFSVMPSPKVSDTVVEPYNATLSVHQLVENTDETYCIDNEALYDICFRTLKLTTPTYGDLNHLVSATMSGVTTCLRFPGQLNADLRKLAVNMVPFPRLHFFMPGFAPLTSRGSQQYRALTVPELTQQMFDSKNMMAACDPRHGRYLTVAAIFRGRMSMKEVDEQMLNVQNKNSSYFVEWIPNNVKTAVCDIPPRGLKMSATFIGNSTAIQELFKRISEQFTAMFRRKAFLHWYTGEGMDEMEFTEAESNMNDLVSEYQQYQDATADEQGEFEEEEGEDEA
T1 sequence (P81947 whole entry): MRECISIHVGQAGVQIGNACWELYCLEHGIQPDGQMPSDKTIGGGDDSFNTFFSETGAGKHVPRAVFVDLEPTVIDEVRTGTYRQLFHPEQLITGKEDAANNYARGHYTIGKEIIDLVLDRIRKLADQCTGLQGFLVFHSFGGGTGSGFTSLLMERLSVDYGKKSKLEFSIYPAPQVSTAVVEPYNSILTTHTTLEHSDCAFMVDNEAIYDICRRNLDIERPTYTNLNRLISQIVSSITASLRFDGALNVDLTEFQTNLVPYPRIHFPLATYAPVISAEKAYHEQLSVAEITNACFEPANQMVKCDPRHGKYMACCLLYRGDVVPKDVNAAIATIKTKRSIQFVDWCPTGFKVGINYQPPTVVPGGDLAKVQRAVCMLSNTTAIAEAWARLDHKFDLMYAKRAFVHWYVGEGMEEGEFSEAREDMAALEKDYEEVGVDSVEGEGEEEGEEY

`COc1ccc(S(=O)(=O)N(C)c2cc(OC)cc(OC)c2)cc1` [Compound 2, N-(3,5-dimethoxyphenyl)-4-methoxy-N-methylbenzenesulphonamide] yielded a melting point of 120 to 128 °C. In data set [1], the “TPI % 10 µM” value amounted to 10% and the IC50 is over 10000 nM. Further, the IC50 in data set [2] (setting [6]) was over 1000 nM. The compound also showed a solubility at 48 h in data set [3] of 35 µg/mL (≈ 104 µM). In addition, in data set [4], the IC50 was 877 nM. Further, the IC50 in data set [5] was 765 nM.

The compound `COc1ccc(S(=O)(=O)Nc2ccc(OC)c(OC)c2)cc1` [Compound 11, N-(3,4-dimethoxyphenyl)-4-methoxybenzenesulphonamide] showed a melting point of 101 to 102 °C. For the same compound, in data set [1], the “TPI % 10 µM” value turned out to be 4% and the IC50 is over 10000 nM. Further, in data set [2] (setting [6]), the IC50 is over 1000 nM. The same compound displayed a solubility at 48 h in data set [3] of 82 µg/mL (≈ 254 µM). The IC50 in data set [4] is over 1000 nM. The IC50 in data set [5] is over 1000 nM.

As to `COc1ccc(S(=O)(=O)Nc2cc(OC)c(OC)cc2Br)cc1` [Compound 13, N-(2-bromo-4,5-dimethoxyphenyl)-4-methoxybenzenesulphonamide], the melting point lay within 162 to 167 °C. In data set [1], the “TPI % 10 µM” value stood at 0% and the IC50 was over 10000 nM. Further, in data set [2] (setting [6]), the IC50 came to 543 nM. This compound had a solubility at 48 h in data set [3] of 22 µg/mL (≈ 54.7 µM). The half-inhibitory concentration (IC50) in data set [4] is 510 nM.

`COc1ccc(S(=O)(=O)N(C)c2cc(OC)c(OC)cc2Br)cc1` [Compound 14, N-(2-bromo-4,5-dimethoxyphenyl)-4-methoxy-N-methylbenzenesulphonamide] displayed a melting point of 136 to 141 °C. In addition, in data set [1], the “TPI % 10 µM” value came out at 0% and the half-maximal inhibitory concentration (IC50) was over 10000 nM. In addition, the IC50 in data set [2] (setting [6]) stood at 907 nM. For the same compound, the solubility at 48 h in data set [3] worked out at 61 µg/mL (≈ 147 µM). Moreover, the IC50 in data set [4] was 557 nM.

As for `CCN(c1cc(OC)c(OC)cc1Br)S(=O)(=O)c1ccc(OC)cc1` [Compound 15, N-(2-bromo-4,5-dimethoxyphenyl)-N-ethyl-4-methoxybenzenesulphonamide], the melting point was 111 to 117 °C. In data set [1], the “TPI % 10 µM” value stood at 24% and the IC50 is over 10000 nM. Also, the IC50 in data set [2] (setting [7]) was found to be 500 nM. Moreover, in data set [2] (setting [6]), the IC50 was found to be 365 nM. For the same compound, the solubility at 48 h in data set [3] stood at 26 µg/mL (≈ 60.4 µM). In addition, in data set [4], the IC50 is 313 nM. Moreover, the IC50 in data set [5] is 660 nM.

Take `COc1ccc(S(=O)(=O)N(CC#N)c2cc(OC)c(OC)cc2Br)cc1` [Compound 16, N-(2-bromo-4,5-dimethoxyphenyl)-N-(cyanomethyl)-4-methoxybenzenesulphonamide]: the melting point fell in the range of 76 to 84 °C. Also, in data set [1], the “TPI % 10 µM” value was 16% and the IC50 is over 10000 nM. Further, the IC50 in data set [2] (setting [7]) stood at 750 nM. Also, the IC50 in data set [2] (setting [6]) was 360 nM. In addition, in data set [3], the solubility at 48 h was 13 µg/mL (≈ 29.5 µM). Besides, the IC50 in data set [4] was 407 nM. The IC50 in data set [5] worked out at 575 nM.

As for `COc1ccc(S(=O)(=O)Nc2cc(OC)ccc2OC)cc1` [Compound 21, N-(2,5-dimethoxyphenyl)-4-methoxybenzenesulphonamide], the melting point was 114 to 115 °C. In data set [1], the “TPI % 10 µM” value was determined as 0% and the half-maximal inhibitory concentration (IC50) was over 10000 nM. Also, in data set [2] (setting [6]), the concentration for half-maximal inhibition (IC50) turned out to be 187 nM. This compound also showed a solubility at 48 h in data set [3] of 13 µg/mL (≈ 40.2 µM). Also, the IC50 in data set [4] came to 227 nM. Besides, the IC50 in data set [5] turned out to be 350 nM.

On to `COc1ccc(S(=O)(=O)Nc2cc(OC)c(OC)cc2OC)cc1` [Compound 32, 4-Methoxy-N-(2,4,5-trimethoxyphenyl)benzenesulphonamide], for which the melting point was in the range of 112 to 114 °C. In addition, in data set [1], the “TPI % 10 µM” value is recorded as 3% and the IC50 is over 10000 nM. Moreover, the IC50 in data set [2] (setting [7]) amounted to 553 nM. In addition, in data set [2] (setting [6]), the IC50 is 360 nM. For the same compound, the solubility at 48 h in data set [3] is 213 µg/mL (≈ 603 µM). Also, the IC50 in data set [4] was found to be 410 nM. Besides, in data set [5], the IC50 came to 580 nM.

The compound `COc1ccc(S(=O)(=O)N(C)c2cc(OC)c(OC)cc2OC)cc1` [Compound 33, 4-Methoxy-N-methyl-N-(2,4,5-trimethoxyphenyl)benzenesulphonamide] yielded a melting point of 137 to 143 °C. Besides, in data set [1], the “TPI % 10 µM” value is reported as 0% and the IC50 is over 10000 nM. In addition, in data set [2] (setting [7]), the IC50 is 577 nM. In addition, the IC50 in data set [2] (setting [6]) was determined as 500 nM. In data set [3], this compound displayed a solubility at 48 h of 157 µg/mL (≈ 427 µM). The IC50 in data set [4] is 413 nM. Moreover, in data set [5], the IC50 was 99 nM and the “Fold more potent against MCF7 than against HeLa” value is 4–7 fold.

`COc1ccc(S(=O)(=O)N(CC#N)c2cc(OC)c(OC)cc2OC)cc1` [Compound 35, N-(cyanomethyl)-4-methoxy-N-(2,4,5-trimethoxyphenyl)benzenesulphonamide] showed a melting point of 173 to 180 °C. Besides, in data set [1], the “TPI % 10 µM” value was found to be 5% and the IC50 was over 10000 nM. Further, in data set [2] (setting [7]), the IC50 worked out at 415 nM. Moreover, the IC50 in data set [2] (setting [6]) was determined as 365 nM. The solubility at 48 h in data set [3] came to 15 µg/mL (≈ 38.2 µM). For the same compound, in data set [4], the 50% inhibitory concentration (IC50) stood at 500 nM. In data set [5], the IC50 amounted to 67 nM and the “Fold more potent against MCF7 than against HeLa” value is reported as 4–7 fold.
